Experimental findings from patent publication US10844044B2 (Vanderbilt University, priority 2018, dated 2020) are described below.

A value given as a limit tells only on which side of the number the result lay.

By Ki is commonly meant a measure of affinity in units of concentration, obtained from inhibition or displacement.

For one assay, the target named is WDR5 (Homo sapiens (Human), UniProt P61964). As to the kind of experiment: TR-FRET binding assay (displacement of 10mer-Thr-FAM probe from WDR5).
Conditions: not given
For orientation: Time-resolved FRET reads energy transfer from a long-lived donor to a nearby acceptor.
In turn, `COc1cccc(-c2cc(Cn3ccn(C)c3=N)cc(C(=O)NCc3ccc(Cl)c(Cl)c3)c2)n1` [Example 169, N-(3,4-Dichlorobenzyl)-3-((2-imino-3-methyl-2,3-dihydro-1H-imidazol-1-yl)methyl)-5-(6-methoxypyridin-2-yl)benzamide] had an inhibitory constant (Ki) of 23 nM.

Still in this assay, the particulars now being: read-out: Ki for Inhibition of WDR5 by TR-FRET assay.
Consider `Cc1cc([C@H](C)NC(=O)c2cc(Cn3ccn(C)c3=N)cc(OC(F)(F)F)c2)ccc1F` [Example 170, (S)—N-(1-(4-Fluoro-3-methylphenyl)ethyl)-3-((2-imino-3-methyl-2,3-dihydro-1H-imidazol-1-yl)methyl)-5-(trifluoromethoxy)benzamide], for which the inhibition constant Ki amounted to 0.22 nM. For `CCn1cc(-c2cc(Cn3ccn(C4CC4)c3=N)cc(C(=O)NCc3ccc(F)c(C)c3)c2)c(C(F)(F)F)n1` [Example 197, 3-((3-Cyclopropyl-2-imino-2,3-dihydro-1H-imidazol-1-yl)methyl)-5-(1-ethyl-3-(trifluoromethyl)-1H-pyrazol-4-yl)-N-(4-fluoro-3-methylbenzyl)benzamide], the Ki was below 0.1 nM. The same measure, in the same setting: to `Cc1cc([C@@H](NC(=O)c2cc(Cn3c(C)coc3=N)cc(-c3cccnc3C(F)(F)F)c2)C2CC2)ccc1F` [Example 252, (S)—N-(Cyclopropyl(4-fluoro-3-methylphenyl)methyl)-3-((2-imino-4-methyloxazol-3(2H)-yl)methyl)-5-(2-(trifluoromethyl)pyridin-3-yl)benzamide] belongs 21 nM.

Still in this assay, the particulars now being: read-out: Ki for Inhibition of WDR5 by TR-FRET assay; TR-FRET, 10mer-Thr-FAM probe, WDR5-His tag 2 nM, pH 7.0.
Regarding `N=c1n(Cc2cc(C(=O)N[C@H](c3ccc(Cl)c(Cl)c3)C3CC3)cc(-c3cccnc3C(F)(F)F)c2)ccn1C1CC1` [Example 155, (S)—N-(Cyclopropyl(3,4-dichlorophenyl)methyl)-3-((3-cyclopropyl-2-imino-2,3-dihydro-1H-imidazol-1-yl)methyl)-5-(2-(trifluoromethyl)pyridin-3-yl)benzamide], the Ki turned out to be 1.4 nM. On the same count and under the same terms, to `Cc1cc([C@@H](NC(=O)c2cc(Cn3ccn(C4CC4)c3=N)cc(-c3cn(CC(C)C)nc3C(F)(F)F)c2)C2CC2)ccc1F` [Example 163, (S)—N-(Cyclopropyl(4-fluoro-3-methylphenyl)methyl)-3-((3-cyclopropyl-2-imino-2,3-dihydro-1H-imidazol-1-yl)methyl)-5-(1-isobutyl-3-(trifluoromethyl)-1H-pyrazol-4-yl)benzamide] belongs 0.68 nM; to `Cc1cc([C@@H](NC(=O)c2cc(Cn3ccn(C)c3=N)cc(-c3cn(CC(C)C)nc3C(F)(F)F)c2)C2CC2)ccc1F` [Example 165, (S)—N-(Cyclopropyl(4-fluoro-3-methylphenyl)methyl)-3-((2-imino-3-methyl-2,3-dihydro-1H-imidazol-1-yl)methyl)-5-(1-isobutyl-3-(trifluoromethyl)-1H-pyrazol-4-yl)benzamide], 0.14 nM. Same read-out and setting: to `Cc1cc(F)ccc1-c1cc(Cn2ccn(C)c2=N)cc(C(=O)N[C@@H](c2ccc(F)c(C)n2)C2CC2)c1` [Example 167, (R)—N-(Cyclopropyl(5-fluoro-6-methylpyridin-2-yl)methyl)-4′-fluoro-5-((2-imino-3-methyl-2,3-dihydro-1H-imidazol-1-yl)methyl)-2′-methyl-[1,1′-biphenyl]-3-carboxamide] belongs 0.21 nM. As for `Cn1ccn(Cc2cc(C(=O)NCc3ccc(Cl)c(Cl)c3)cc(-c3cccc4c3OC(F)(F)O4)c2)c1=N` [Example 168, N-(3,4-Dichlorobenzyl)-3-(2,2-difluorobenzo[d][1,3]dioxol-4-yl)-5-((2-imino-3-methyl-2,3-dihydro-1H-imidazol-1-yl)methyl)benzamide], the Ki was 27 nM. The same measure, in the same setting: then `Cc1cc(F)ccc1-c1cc(Cn2ccn(C)c2=N)cc(C(=O)N[C@H](c2ccc(F)c(C)n2)C2CC2)c1` [Example 173, (S)-1N-(Cyclopropyl(5-fluoro-6-methylpyridin-2-yl)methyl)-4′-fluoro-5-((2-imino-3-methyl-2,3-dihydro-1H-imidazol-1-yl)methyl)-2′-methyl-[1,1′-biphenyl]-3-carboxamide], with 0.89 nM; and `CCOc1cc(Cn2ccn(C)c2=N)cc(C(=O)N[C@@H](C)c2ccc(F)c(C)c2)c1` [Example 176, (S)-3-Ethoxy-N-(1-(4-fluoro-3-methylphenyl)ethyl)-5-((2-imino-3-methyl-2,3-dihydro-1H-imidazol-1-yl)methyl)benzamide], with 0.5 nM; and `COc1cc(CNC(=O)c2cc(Cn3ccn(C)c3=N)cc(OCC3CC3)c2)cc(OC)c1` [Example 178, 3-(Cyclopropylmethoxy)-N-(3,5-dimethoxybenzyl)-5-((2-imino-3-methyl-2,3-dihydro-1H-imidazol-1-yl)methyl)benzamide], with 3.3 nM.

Turning to `CCOc1cc(Cn2ccn(C)c2=N)cc(C(=O)N[C@H](c2ccc(F)c(C)c2)C2CC2)c1` [Example 180, (S)—N-(Cyclopropyl(4-fluoro-3-methylphenyl)methyl)-3-methoxy-5-((2-imino-3-methyl-2,3-dihydro-1-imidazol-1-yl)methyl)benzamide], the inhibition constant (Ki) amounted to 0.13 nM.

`Cc1cc([C@H](C)NC(=O)c2cc(Cn3ccn(C)c3=N)cc(OCC3CC3)c2)ccc1F` [Example 181, (S)-3-(Cyclopropylmethoxy)-N-(1-(4-fluoro-3-methylphenyl)ethyl)-5-((2-imino-3-methyl-2,3-dihydro-1H-imidazol-1-yl)methyl)benzamide]: the Ki was found to be 0.35 nM.

On to `Cc1ccnc([C@@H](NC(=O)c2cc(Cn3ccn(C)c3=N)cc(OCC3CC3)c2)C2CC2)c1` [Example 182, (S)—N-(Cyclopropyl(4-methylpyridin-2-yl)methyl)-3-(cyclopropylmethoxy)-5-((2-imino-3-methyl-2,3-dihydro-1H-imidazol-1-yl)methyl)benzamide], for which the Ki amounted to 1 nM. The same measure, in the same setting: then `CCOc1cc(Cn2ccn(C)c2=N)cc(C(=O)NCc2ccc(Cl)c(C)c2)c1` [Example 183, N-(4-Chloro-3-methylbenzyl)-3-ethoxy-5-((2-imino-3-methyl-2,3-dihydro-1H-imidazol-1-yl)methyl)benzamide], with 0.71 nM. As for `COc1cc(-c2cc(Cn3ccn(C)c3=N)cc(C(=O)NCc3ccc(Cl)c(Cl)c3)c2)c(F)cn1` [Example 184, N-(3,4-dichlorobenzyl)-3-(5-fluoro-2-methoxypyridin-4-yl)-5-((2-imino-3-methyl-2,3-dihydro-1H-imidazol-1-yl)methyl)benzamide], the Ki amounted to 0.56 nM. The same measure, in the same setting: to `Cc1cc([C@@H](NC(=O)c2cc(Cn3ccn(C)c3=N)cc(N3CCCC3)c2)C2CC2)ccc1F` [Example 206, (S)—N-(Cyclopropyl(4-fluoro-3-methylphenyl)methyl)-3-((2-imino-3-methyl-2,3-dihydro-1H-imidazol-1-yl)methyl)-5-(pyrrolidin-1-yl)benzamide] belongs 0.34 nM; to `Cc1cc([C@@H](NC(=O)c2cc(Cn3ccn(C)c3=N)cc(N3CCCC3)c2)C2CC2)ncc1F` [Example 208, (S)—N-(Cyclopropyl(5-fluoro-4-methylpyridin-2-yl)methyl)-3-((2-imino-3-methyl-2,3-dihydro-1H-imidazol-1-yl)methyl)-5-(pyrrolidin-1-yl)benzamide], 0.59 nM; to `Cc1cc([C@@H](NC(=O)c2cc(Cn3ccn(C)c3=N)cc(C3(C(F)(F)F)CC3)c2)C2CC2)ncc1F` [Example 218, (S)—N-(cyclopropyl(5-fluoro-4-methylpyridin-2-yl)methyl)-3-((2-imino-3-methyl-2,3-dihydro-1H-imidazol-1-yl)methyl)-5-(1-(trifluoromethyl)cyclopropyl)benzamide], below 0.1 nM. On to `Cc1cc([C@@H](NC(=O)c2cc(Cn3ccn(C)c3=N)cc(N3CCC[C@@H]3C(F)(F)F)c2)C2CC2)ccc1F` [Example 222, N—((S)-Cyclopropyl(4-fluoro-3-methylphenyl)methyl)-3-((2-imino-3-methyl-2,3-dihydro-1H-imidazol-1-yl)methyl)-5-((R)-2-(trifluoromethyl)pyrrolidin-1-yl)benzamide], for which the inhibition constant Ki was found to be 0.33 nM. With `Cc1cc([C@@H](NC(=O)c2cc(Cn3ccn(C)c3=N)cc(N3CCC[C@H]3C(F)(F)F)c2)C2CC2)ccc1F` [Example 223], the Ki came out at 1.3 nM.

With `Cc1cc([C@@H](NC(=O)c2cc(Cn3ccn(C)c3=N)cc(-n3ccnc3C)c2)C2CC2)ccc1F` [Example 224, (S)—N-(Cyclopropyl(4-fluoro-3-methylphenyl)methyl)-3-((2-imino-3-methyl-2,3-dihydro-H-imidazol-1-yl)methyl)-5-(2-methyl-1H-imidazol-1-yl)benzamide], the Ki was determined as 0.14 nM. Turning to `CCn1cc(-c2cc(Cn3ccn(C)c3=N)cc(C(=O)N[C@H](c3ccc(F)c(C)c3)C3CC3)c2)c(C)n1` [Example 225, (S)—N-(Cyclopropyl(4-fluoro-3-methylphenyl)methyl)-3-(1-ethyl-3-methyl-1H-pyrazol-4-yl)-5-((2-imino-3-methyl-2,3-dihydro-1H-imidazol-1-yl)methyl)benzamide], the Ki was below 0.1 nM. Still for that read-out and setting: then `Cc1cc([C@@H](NC(=O)c2cc(Cn3ccn(C)c3=N)cc(N3CCC[C@H]3C)c2)C2CC2)ccc1F` [Example 226, N—((S)-Cyclopropyl(4-fluoro-3-methylphenyl)methyl)-3-((2-imino-3-methyl-2,3-dihydro-1H-imidazol-1-yl)methyl)-5-((R)-2-methylpyrrolidin-1-yl)benzamide], with 7.1 nM. The same measure, in the same setting: then `Cc1ccnc(C(NC(=O)c2cc(Cn3ccoc3=N)cc(-c3ncccc3C(F)(F)F)c2)C2CC2)c1` (stereo not drawn) [Example 237, N-(Cyclopropyl(4-methylpyridin-2-yl)methyl)-3-((2-iminooxazol-3(2H)-yl)methyl)-5-(3-(trifluoromethyl)pyridin-2-yl)benzamide], with 7.5 nM. On the same count and under the same terms, to `Cc1cc([C@@H](NC(=O)c2cc(Cn3ccoc3=N)cc(-c3cncnc3C(F)(F)F)c2)C2CC2)ccc1F` [Example 255, (S)—N-(Cyclopropyl(4-fluoro-3-methylphenyl)methyl)-3-((2-iminooxazol-3(2H)-yl)methyl)-5-(4-(trifluoromethyl)pyrimidin-5-yl)benzamide] belongs 0.62 nM.
